Laboratory results taken from publication PMC12299847, “Macroalgae-Inspired Brominated Chalcones as Cosmetic Ingredients with the Potential to Target Skin Inflammaging” (Marine Drugs, 2025).

Columns and labels:
[1] = test system: NO production in LPS-stimulated RAW 264.7 macrophages; test: NO production (Griess assay) in LPS-stimulated macrophages; type: cell-based, murine; settings: Mus musculus, RAW264.7, 24 h, RAW 264.7, LPS 100 ng/mL, Griess
Method: The anti-inflammatory potential of chalcones 1–7 was evaluated in macrophages cultured in the presence or absence (control) of LPS, as depicted in Figure 4. Under basal conditions (unstimulated, control), macrophages produce low levels of nitrites (≈12%). […] Each chalcone was tested at concentrations previously established as non-cytotoxic in macrophages, trying to ensure that observed changes in NO levels were not due to reduced cell viability.
The production of NO was evaluated by measuring nitrite accumulation in culture supernatants using the previously described Griess assay. Cells were seeded at a concentration of 5.0 × 10^4 cells/mL in a 96-well plate (200 μL/well) and allowed to stabilize overnight at 37 °C. Afterwards, the cells were treated with different concentrations of compound solutions and pre-incubated for 1 h at 37 °C. Subsequently, an LPS in PBS solution was added to each well, achieving a final concentration of 100 ng/mL, and the plate was left to incubate for 24 h. An amount of 150 μL of the cell culture supernatant was then transferred to a fresh 96-well plate, and an equal amount of Griess reagent [comprising a 1:1 mixture of 1% (w/v) sulphanilamide in 5% (v/v) phosphoric acid and 0.1% (w/v) naphthylethylenediaminedihydrochloride] was added. Following a 30 min incubation at room temperature in the dark, the absorbance was recorded at 550 nm using a Biotek Synergy HT plate reader (Biotek, CA, USA). The nitrite concentration in the supernatants was determined by comparing the absorbance of each sample to a sodium nitrite standard curve. The results, obtained from at least three independent experiments performed in duplicate, were expressed as a percentage of NO production by cells versus chemical concentration, relative to LPS condition (100%).
Figure 4 NO production by macrophages treated with LPS (100 ng/mL) or not (control) in the presence of chalcones 1–7. Results are expressed as a percentage of NO production by cells treated with LPS (100 ng/mL). Each value represents the mean ± SEM of four independent experiments in duplicate. Statistical analysis: one ANOVA with Dunnett’s multiple comparisons test, where p< 0.05 was considered significant. *** p < 0.005, relative to the control, and ^# p < 0.05, ^## p < 0.01, ^### p < 0.0005, and ^#### p < 0.0001, relative to LPS condition.

HaCaT keratinocytes = test: Resazurin cell viability assay in HaCaT keratinocytes; type: cell-based, human; settings: HaCaT, 24 h, significant effects only at 62.5 μM and 125 μM
Method: To evaluate the effects of chalcones 1–7 on cell viability after 24 h, a resazurin assay was performed using two cell lines: human HaCaT keratinocytes (HaCaT, CLS 300493), representing the epidermal layer, and murine RAW 264.7 macrophages (RAW 264.7, ATCC TIB-71), which model immune cells involved in dermal inflammatory responses. For the keratinocyte cell line, all seven brominated and non-brominated chalcones were tested across a concentration range from 2.5 μM to 125 μM (Figure 2).
Human keratinocytes (HaCaT, CLS 300493, Eppelheim, Germany) were cultured in DMEM supplemented with heat-inactivated FBS, and a penicillin and streptomycin antibiotic solution. The cell culture of keratinocytes was washed with 6 mL of phosphate buffer solution with 0.05% EDTA (Sigma-Aldrich, St. Louis, MO, USA) and detached using 3 mL of 0.05% trypsin + 0.02% EDTA in PBS solution when the cells reached 70–80% confluence in cell culture flasks. DMEM was also used to cultivate the mouse macrophage cell line (RAW 264.7, ATCC TIB-71, Manassas, VA, USA) together with 10% (v/v) non-inactivated FBS, 1.5 g/L sodium bicarbonate, and 100 U/mL penicillin and 100 μg/mL streptomycin stock (antibiotic solution). The macrophage culture was mechanically detached using a cell scraper, and the final amount of DMEM media with the cells was sub-cultured in a 1:10 ratio to the cellular suspension.
The resazurin reduction assay was employed to evaluate the metabolic activity of human epidermal keratinocyte (HaCaT) and murine macrophage (RAW264.7) cell lines, as outlined in a previous study. In brief, HaCaT cells (1.0 × 10^5 cells/mL) and RAW264.7 cells (5.0 × 10^4 cells/mL) were seeded in 96-well plates (200 μL/well) and incubated overnight at 37 °C to allow for cell attachment. Following this, the cells were treated with different concentrations of the test compounds and kept at 37 °C for 24 h. After 20 h, resazurin (500 μM in sterile phosphate buffer solution, pH 7.4) was added to each well to achieve a final concentration of 50 μM, followed by an additional incubation of 4 h. Absorbance was then measured at wavelengths of 570 and 620 nm using a SpectraMax Plus 384 absorbance microplate spectrophotometer (Molecular Devices, San Jose, CA, USA). Each experiment was conducted in triplicate, with a minimum of three independent assays. The results were graphically presented as the percentage of cell viability versus chemical concentration, relative to the control.
Figure 2 Cytotoxicity of chalcones 1–7 using a resazurin reduction assay in HaCaT cells by comparison with the control. Bar graphs represent the mean ± SEM of at least three independent experiments performed in triplicate. Statistical analysis: one ANOVA with Dunnett’s multiple comparisons test, where p < 0.05 was considered significant when compared to the control condition. * p < 0.05, ** p < 0.01, and *** p < 0.0005.

IC50 [1]: 580 ± 120 nM
Structure (SMILES): COc1cc(Br)c(/C=C/C(=O)c2cc(OC)c(OC)cc2Br)cc1OC [Chalcone 1]
maximal reduction in viability (HaCaT keratinocytes): ≤ 25%
